Laboratory results from paper PMC10187093, “Synthesis, in silico modelling, and in vitro biological evaluation of substituted pyrazole derivatives as potential anti-skin cancer, anti-tyrosinase, and antioxidant agents” (Journal of Enzyme Inhibition and Medicinal Chemistry, 2023).
Read-outs that look alike come from different tables or passages of the source.

Tests used:
[1] = DPPH free radical scavenging assay; details: for Percent Scavenging (DPPH): 1 mM
Description: An initial screen was done of all 25 derivatives at a concentration of 1 mM. […] Methanol was used as the diluent, and 100 µL of DPPH (200 µM; Sigma-Aldrich, St. Louis, MO) was added to each well. […] The scavenging capacity (SC) was calculated as SC% = ((ΔAcontrol – ΔAsample)/ΔAcontrol) × 100%, where ΔAcontrol was the absorbance of the reagent blank, and ΔAsample was the absorbance of the test samples. The control contained all reagents except the compounds, and all tests were performed in triplicate. Quercetin served as a positive control. The DPPH methanolic solution (1 mL) mixed with DMSO (5 µL) served as a negative control.

A375 = experiment: MTT antiproliferative/cytotoxicity assay, A375; type: cell-based, human; details: melanoma, MTT, 48 h, read-out: IC50 A375
Description: (§1) Human-derived GFP-expressing melanoma A375 and epidermoid carcinoma A431 cell lines were purchased from Angio-Proteomie (Boston, MA). Human melanoma carcinoma SK-MEL-28 and human immortalised keratinocytes (HaCaT) cell lines were acquired from American Type Culture Collection (ATCC; Manassas, VA). Human cutaneous SCC cell line SCC-12[192] was generously provided by Dr. James G. Rheinwald to Dr. Tatiana Efimova. Except SK-MEL-28, which was cultured in an RPMI-1640 medium supplemented with 5% FBS, all other human immortalised cell lines were grown and maintained in DMEM containing varying percentages of FBS; 5% FBS for A431, SCC-12, and HaCaT lines, and 10% FBS for A375. All culture media were routinely supplemented with 1% PEST 100X (100 U/mL penicillin, 100 μg/mL streptomycin), and cells were cultured in incubators maintained at 37 °C under an atmosphere of 95% humidity, 20% O2, and 5% CO2. The growth media of incubated cells were changed every 2–3 days until they attained 70–80% confluence, after which they were sub-cultured for experiments and re-passaging. DMSO was used as the vehicle to prepare a 10 mM stock solution of the test compounds.
(§2) Stock solutions (10 mM) were prepared by dissolving each compound to be screened in DMSO. From these stock solutions, escalating concentrations were prepared using the corresponding cell growth media as a diluent, and the cells (65–75% confluent) were treated with (0–40 µM) or without the drug in sext- to octuplicate and incubated for 48 h. All treatment protocols and controls were prepared as previously described.
(§3) The potency and cytotoxicity of the test compounds against two cutaneous melanoma (A375 and SK-MEL-28) and two non-melanoma (A431 and SCC-12) SC cell lines in addition to a control immortalised normal human epidermal keratinocytes (HaCaT) cell line were assessed by MTT assay as previously described.

SK-MEL-28 = experiment: MTT antiproliferative/cytotoxicity assay, SK-MEL-28; type: cell-based, human; details: melanoma, MTT, 48 h, read-out: IC50 SKMEL-28
Description: as §1, §2, §3

GFP-A431 = experiment: MTT antiproliferative/cytotoxicity assay, A431; type: cell-based, human; details: for IC50: read-out: IC50 GFP-A431
Description: (§4) Human-derived GFP-expressing melanoma A375 and epidermoid carcinoma A431 cell lines were purchased from Angio-Proteomie (Boston, MA). Human melanoma carcinoma SK-MEL-28 and human immortalised keratinocytes (HaCaT) cell lines were acquired from American Type Culture Collection (ATCC; Manassas, VA). […] The growth media of incubated cells were changed every 2–3 days until they attained 70–80% confluence, after which they were sub-cultured for experiments and re-passaging. DMSO was used as the vehicle to prepare a 10 mM stock solution of the test compounds.
(§5) Stock solutions (10 mM) were prepared by dissolving each compound to be screened in DMSO.

HaCaT = experiment: MTT cytotoxicity assay, noncancerous HaCaT keratinocytes; type: cell-based, human; details: control noncancerous keratinocytes, MTT, 48 h, read-out: IC50 HaCaT
Description: as §1, §2, §3

SCC-12 = experiment: MTT antiproliferative/cytotoxicity assay, SCC-12; type: cell-based, human; details: for IC50: non-melanoma, MTT, 48 h, read-out: IC50 SCC-12
Description: as §4, §5

mushroom tyrosinase = target: T1, mushroom tyrosinase (Agaricus bisporus, UniProt C7FF04); experiment: In vitro mushroom tyrosinase inhibition assay; type: biochemical; details: for inhibition at 500 µM: single-concentration screen, read-out: % Inhibition of tyrosinase; for IC50: > 500 = not biologically relevant, read-out: IC50 Value, mushroom tyrosinase inhibition (Table S1)
T1 construct: purchased Sigma-Aldrich Chemical Company (St. Louis, MO) and MP Biomedicals (Irvine, CA)
Description: The anti-tyrosinase potential of all the synthesised derivatives was determined by an enzymatic tyrosinase inhibition assay based on their ability to inhibit the substrate, L-tyrosine, from binding to the tyrosinase enzyme. […] Test samples were dissolved in DMSO at a concentration of 10 mM and then diluted to different concentrations with phosphate buffer (0.1 M, pH 6.8). Each well contained 40 µL of the sample with 80 µL of phosphate buffer solution (0.1 M, pH 6.8), 40 µL of tyrosinase enzyme (100 units/mL), and 40 µL L-tyrosine (2.5 mM). The mixture was incubated for 30 min at room temperature, and absorbance was measured at 490 nm. Each sample was accompanied by a sample blank containing all components except tyrosinase. […] The percentage of tyrosinase inhibition was calculated as follows: ((ΔAcontrol – ΔAsample)/ΔAcontrol) × 100. IC50 values denoted the sample concentration required to inhibit 50% tyrosinase activity (Table S1).

[2] = read-out: IC50 DPPH radical scavenging
[3] = Homo sapiens, A-431, 48 h, non-melanoma, MTT, 48 h
[4] = N.A. = No Activity, > 1000 = not biologically relevant, read-out: IC50 Value, DPPH antioxidant activity (Table S4)
[5] = IC50 HaCaT divided by IC50 A431
[6] = IC50 HaCaT divided by IC50 SCC-12

T1 sequence (C7FF04 1-392 limits assumed): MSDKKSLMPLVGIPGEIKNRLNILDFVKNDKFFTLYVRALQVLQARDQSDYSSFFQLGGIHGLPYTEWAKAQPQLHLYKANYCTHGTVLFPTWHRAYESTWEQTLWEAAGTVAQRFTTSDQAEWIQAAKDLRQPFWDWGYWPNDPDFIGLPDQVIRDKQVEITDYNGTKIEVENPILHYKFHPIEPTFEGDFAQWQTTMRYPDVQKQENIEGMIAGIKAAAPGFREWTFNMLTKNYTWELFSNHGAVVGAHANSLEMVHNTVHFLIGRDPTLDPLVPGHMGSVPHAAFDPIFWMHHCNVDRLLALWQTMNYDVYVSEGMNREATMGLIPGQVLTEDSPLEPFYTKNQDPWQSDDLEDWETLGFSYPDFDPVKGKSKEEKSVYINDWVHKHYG

Compound	IC50 (A375; Homo sapiens, A-375, 48 h) [µM]	IC50 (HaCaT; Homo sapiens, HaCaT) [µM]	inhibition at 500 µM (mushroom tyrosinase) [%]	IC50 (mushroom tyrosinase) [µM]	IC50 (SK-MEL-28; Homo sapiens, SK-MEL-28, 48 h) [µM]	IC50 (GFP-A431; [3]) [µM]	IC50 (SCC-12; Homo sapiens, SCC12, 48 h) [µM]	Percent Scavenging (DPPH) [1] [%]	other results
Cc1cc(C(C)(C)C)c(O)c(C(C)(C)C)c1 [BHT, butylated hydroxytoluene, reference compound]	–	–	–	–	–	–	–	–	IC50 [1, 2]: 285 ± 7 µM
Cc1ccc(-c2cc(C(F)(F)F)nn2-c2ccc(S(N)(=O)=O)cc2)cc1 [Celecoxib, celecoxib, reference compound]	27	49.8 ± 8.2	–	–	–	–	–	–	IC50 (A375): 26.8 ± 2.7 µM; IC50 (SK-MEL-28; Homo sapiens, SK-MEL-28): 11.4 ± 2.4 µM; IC50 (GFP-A431; Homo sapiens, A-431, 48 h): 7.4 µM
N.N.[Cl][Pt][Cl] [Cisplatin, cisplatin, reference compound]	–	–	–	–	–	–	–	–	IC50 (A375): 1.49 ± 0.44 µM; IC50 (SK-MEL-28): 14.2 ± 0.24 µM; IC50 (GFP-A431; non-melanoma, MTT, 48 h): 7.7 ± 0.3 µM; IC50 (SCC-12): 4.4 ± 0.2 µM; IC50 (HaCaT): 3.4 ± 0.4 µM
CCc1c(C)n[nH]c1C [P1, 4-Ethyl-3,5-dimethyl-1H-pyrazole]	47.7 ± 4.2	60.5 ± 3.9	6.77	> 500	42.8 ± 0.3	41.6 ± 0.8	257 ± 18.4	5.85	IC50 [1, 4]: > 1000 µM
Cc1n[nH]c2c1CCC2 [P2, 3-Methyl-1,4,5,6-tetrahydrocyclopenta[c]pyrazole]	54.3 ± 1.6	44.2 ± 1.1	20.8	> 500	42.6 ± 1.5	43.9 ± 2.1	246 ± 37.3	-5.84	–
Cc1cc(-c2ccccc2)n[nH]1 [P3, 5-Methyl-3-phenyl-1H-pyrazole]	54.8 ± 2.7	42.1 ± 3.4	42.6	> 500	59.1 ± 4.6	27.2 ± 0.9	546 ± 20.7	-0.39	selectivity index (SI) A431 (GFP-A431): 27.2 ± 0.9 (1.6); selectivity index (SI) SCC-12 (SCC-12): 546.5 ± 20.7 (0.1)
Cc1[nH]nc(-c2ccccc2)c1Cl [P4, 4-Chloro-5-methyl-3-phenyl-1H-pyrazole]	58.4 ± 4.5	76.1	68.7 ± 0.4	197	62.3 ± 2.7	70.8 ± 6.2	216 ± 13.4	-0.84	–
Cc1[nH]nc2c1CCc1ccccc1-2 [P5, 3-Methyl-4,5-dihydro-2H-benzo[g]indazole]	65.3 ± 4.2	265 ± 4.3	40	> 500	131 ± 2.4	42.1 ± 3.1	77.6 ± 1.7	-10.48	selectivity index (SI) A431 (GFP-A431; [5]): 6.3; selectivity index (SI) SCC-12 (SCC-12; [6]): 3.4; DPPH antioxidant activity (in words) [1]: inactivity
Cc1[nH]nc2c1ccc1ccccc12 [P6, 3-Methyl-2H-benzo[g]indazole]	114 ± 3.3	147.2 ± 0.8	81.7 ± 0.7	> 500	47.4 ± 1.2	69.8 ± 7.5	49.9 ± 3.4	65.17	selectivity index (SI) A431 (GFP-A431; [5]): 2.1; selectivity index (SI) SCC-12 (SCC-12; [6]): 3.0; IC50 [1, 4]: 30.6 µM; IC50 [1, 2]: 30.6 ± 2.1 µM
